US8722868B2, “Glycosyltransferase, novel glycosyltransferase gene, and novel sugar donor compound” (National University Corporation Tokyo University of …, priority 2009, dated 2014)

Key:
[1] = molecular target: T1, carnation-derived glycosyltransferase (SEQ ID NO: 1), recombinant crude enzyme liquid (Dianthus caryophyllus, UniProt E3W9M2); assay: Glycosyl transfer reaction with carnation-derived glycosyltransferase gene expressed in Escherichia coli; format: biochemical; details: E. coli crude enzyme liquid, cyanidin-3-O-β-glucoside, pH 5.6, 30° C., 3 hours
T1 construct: the enzyme comprising 502 amino acid residues was translated, followed by amino acid removal via processing; added initiator methionine (one Met placed before the processed N-terminus SEFDRL...) (N); made in house; host or cells: Escherichia coli JM109 (crude lysate supernatant)
T1 sequence (E3W9M2 31-502): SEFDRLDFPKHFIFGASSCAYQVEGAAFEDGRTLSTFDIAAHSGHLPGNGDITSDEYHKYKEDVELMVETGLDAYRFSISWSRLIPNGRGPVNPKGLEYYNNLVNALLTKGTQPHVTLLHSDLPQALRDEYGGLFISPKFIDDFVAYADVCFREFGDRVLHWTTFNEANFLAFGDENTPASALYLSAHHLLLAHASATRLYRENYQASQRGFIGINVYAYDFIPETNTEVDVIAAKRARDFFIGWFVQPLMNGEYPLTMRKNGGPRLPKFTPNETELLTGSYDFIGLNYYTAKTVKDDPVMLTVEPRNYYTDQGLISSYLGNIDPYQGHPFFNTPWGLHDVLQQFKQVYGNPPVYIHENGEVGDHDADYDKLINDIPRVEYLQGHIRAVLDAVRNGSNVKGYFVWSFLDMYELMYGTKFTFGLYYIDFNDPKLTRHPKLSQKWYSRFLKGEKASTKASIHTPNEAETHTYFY
Method: The PCR product was ligated to a pTrcHis2-TOPO vector (Invitrogen) using a pTrcHis2-TOPO TA expression Kit (Invitrogen), followed by transformation of the Escherichia coli JM109 strain. DNA was extracted from the transformed Escherichia coli and the DNA nucleotide sequence was analyzed in the above manner. Accordingly, the direction of cDNA introduction and the nonoccurrence of a PCR-induced nucleotide substitution were confirmed.
The transformed Escherichia coli was seeded on an LB medium containing […] ampicillin (5 ml), followed by shake culture at 30° C. for 4 hours. Then, IPTG was added thereto to result in 1 mM, followed by shake culture at 16° C. for 2 hours. The cultured Escherichia coli was harvested via centrifugation at 1,800×g. The medium was removed therefrom. A 0.1 M citric acid buffer (pH 5.6) (150 μl) was added thereto, followed by sufficient mixing. The resultant was repeatedly subjected to ultrasonication on ice 3 times for 10 seconds (output: 4; duty: 70) using a ultrasonic disintegrator (UD-201, TOMY SEIKO Co., Ltd., Tokyo, Japan), followed by centrifugation at 20,000×g. The supernatant was transferred to a new centrifuge tube and designated as a crude enzyme liquid. […]

[2] = molecular target: T2, glycosyltransferase in crude enzyme extracted from petals of a delphinium (variety: "marine blue") (Delphinium grandiflorum, UniProt E3W9M3); assay: Detection of glycosyl transfer reaction with delphinium petal crude enzyme (HPLC); format: biochemical, delphinium (Delphinium grandiflorum L.); details: cyanidin 3-O-β-glucoside 200 μM, sugar donor 1 mM, pH 5.6, 30° C., 15 minutes
T2 construct: Glycosyltransferase activity was examined using a crude enzyme extracted from; from tissue
T2 sequence (E3W9M3 26-505): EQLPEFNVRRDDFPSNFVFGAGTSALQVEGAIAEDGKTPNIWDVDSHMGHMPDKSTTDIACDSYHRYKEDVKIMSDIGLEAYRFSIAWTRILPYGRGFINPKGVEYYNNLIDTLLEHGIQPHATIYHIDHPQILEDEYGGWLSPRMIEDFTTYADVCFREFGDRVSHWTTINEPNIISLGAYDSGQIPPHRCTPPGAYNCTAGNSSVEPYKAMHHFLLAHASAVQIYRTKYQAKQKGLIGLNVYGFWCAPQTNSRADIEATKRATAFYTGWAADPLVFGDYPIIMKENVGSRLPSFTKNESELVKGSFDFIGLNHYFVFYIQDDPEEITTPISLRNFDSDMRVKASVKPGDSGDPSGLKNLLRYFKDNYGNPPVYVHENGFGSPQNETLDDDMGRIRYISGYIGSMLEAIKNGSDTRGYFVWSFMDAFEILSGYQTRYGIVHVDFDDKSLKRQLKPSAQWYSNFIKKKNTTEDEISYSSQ
Method: Glycosyltransferase activity was examined using a crude enzyme extracted from pink petals of a carnation (variety: “Beam Cherry”) or petals of a delphinium (variety: “marine blue”) in the manner described in Example 1. Cyanidin 3-O-β-glucoside (final concentration: 200 μM) and 1-O-β-p-hydroxybenzoyl glucose (final concentration: 1 mM) were used as a receptor and a sugar donor, respectively. The pH was adjusted to 5.6 with a citric acid buffer, followed by a glycosyltransferase reaction at 30° C. for 15 minutes. The reaction was terminated with phosphoric acid (final concentration: 1%), followed by centrifugation for the removal of insoluble matter. Then, the supernatant was analyzed by HPLC. HPLC analysis was carried out using a 1.5% phosphoric acid aqueous solution and methanol as eluents and a Wakopak Handy ODS column (4.6×250 mm, Wako Pure Chemical Industries, Ltd.). Separation was carried out at a flow rate of 1 ml/min with a linear gradient of 20% to 55% methanol (20 minutes). A reaction product was confirmed using a photodiode array detector.

COc1cc(C(=O)OC2OC(CO)C(O)C(O)C2O)ccc1O (centres unmarked) was tested. Which “Sugar donor function with recombinant carnation-derived glycosyltransferase (reaction product by HPLC)” value [1] did it give?
The value was “Generation of cyanidin 3,5-O-β-diglucoside was confirmed”.

How did the “Recognition as sugar donor by delphinium glycosylation enzyme” value [2] turn out when O=C(OC1OC(CO)C(O)C(O)C1O)c1ccc(O)cc1 (stereo not drawn) [1-O-β-p-hydroxybenzoyl glucose] was run?
The value was “recognize 1-O-β-p-hydroxybenzoyl glucose as a sugar donor”.
